Test results from PubChem BioAssay (NCI).
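Interpolation was linear, between the two tested concentrations surrounding the appropriate level; five concentrations were tested over 48 hours in 96-well plates. The concentration for full growth arrest is given as TGI.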

Columns and labels:
Experiment in all cases: NCI anticancer screen, dose series, 48 h
[1] = tested on: SK-MEL-28 melanoma
[2] = tested on: MALME-3M melanoma
[3] = tested on: COLO 205 colon
[4] = tested on: HCC-2998 colon
[5] = tested on: SN12C renal
[6] = tested on: 786-0 renal
[7] = tested on: IGROV1 ovarian
[8] = tested on: EKVX NSCLC
[9] = tested on: SK-MEL-2 melanoma
[10] = tested on: UACC-257 melanoma
[11] = tested on: OVCAR-3 ovarian
[12] = tested on: HCT-116 colon
[13] = tested on: MDA-N
[14] = tested on: SR leukemia
[15] = tested on: DU-145 prostate
[16] = tested on: HS 578T breast
[17] = tested on: SF-539 CNS
[18] = tested on: RPMI-8226 leukemia
[19] = tested on: OVCAR-5 ovarian
[20] = tested on: A498 renal
[21] = tested on: HOP-92 NSCLC
[22] = tested on: MDA-MB-231 breast
[23] = tested on: HT29 colon
[24] = tested on: NCI-H226 lung
[25] = tested on: SF-268 CNS
[26] = tested on: OVCAR-8 ovarian
[27] = tested on: HOP-62 NSCLC
[28] = tested on: ACHN renal
[29] = tested on: SK-OV-3 ovarian
[30] = tested on: MDA-MB-435
[31] = tested on: MOLT-4 leukemia
[32] = tested on: BT-549 breast
[33] = tested on: A549 NSCLC
[34] = tested on: U251 CNS
[35] = tested on: NCI-H460 lung
[36] = tested on: M14 melanoma
[37] = tested on: K-562 leukemia
[38] = tested on: UACC-62 melanoma
[39] = tested on: HL-60(TB) leukemia
[40] = tested on: NCI-H522 lung
[41] = tested on: CAKI-1 renal
[42] = tested on: UO-31 renal
[43] = tested on: MCF7 breast
[44] = tested on: SW-620 colon
[45] = tested on: PC-3 prostate
[46] = tested on: SK-MEL-5 melanoma
[47] = tested on: HCT-15 colon
[48] = tested on: RXF 393 renal
[49] = tested on: SNB-19 CNS
[50] = tested on: NCI-H23 lung
[51] = tested on: LOX IMVI melanoma
[52] = tested on: TK-10 renal
[53] = tested on: SNB-75 CNS
[54] = tested on: CCRF-CEM leukemia
[55] = tested on: T-47D breast
[56] = tested on: KM12 colon
[57] = tested on: OVCAR-4 ovarian
[58] = tested on: SF-295 CNS
[59] = tested on: NCI/ADR-RES ovarian
[60] = tested on: DMS 114 small cell lung
[61] = tested on: M19-MEL melanoma
[62] = tested on: DLD-1 colon
[63] = tested on: KM20L2 colon
[64] = tested on: SNB-78 CNS
[65] = tested on: LXFL 529 NSCLC
[66] = tested on: DMS 273 small cell lung
[67] = tested on: HOP-18 NSCLC

In the case of O=c1cc(-c2ccccc2)oc2c1ccc1[nH]c3ccccc3c(=O)c12, the TGI [1] is reported as greater than 100 µM, the TGI [2] is reported as greater than 100 µM and the TGI [3] is reported as greater than 100 µM. The TGI [4] was greater than 100 µM, the TGI [5] was greater than 100 µM and the TGI [6] was greater than 100 µM. For the same molecule, the TGI [7] was greater than 100 µM, the TGI [8] was greater than 100 µM and the TGI [9] was greater than 100 µM. The TGI [10] was greater than 100 µM, the TGI [11] was greater than 100 µM and the TGI [12] was greater than 100 µM. For the same molecule, the TGI [13] was greater than 100 µM, the TGI [14] was greater than 100 µM and the TGI [15] was greater than 100 µM. For the same molecule, the TGI [16] was greater than 100 µM, the TGI [17] was greater than 100 µM and the TGI [18] was greater than 100 µM. For the same molecule, the TGI [19] was greater than 100 µM, the TGI [20] was greater than 100 µM and the TGI [21] was greater than 100 µM. It also gave a TGI [22] greater than 100 µM, a TGI [23] greater than 100 µM and a TGI [24] greater than 100 µM. For the same molecule, the TGI [25] was greater than 100 µM, the TGI [26] was greater than 100 µM and the TGI [27] was greater than 100 µM. It also gave a TGI [28] greater than 100 µM, a TGI [29] greater than 100 µM and a TGI [30] greater than 100 µM. It also gave a TGI [31] greater than 100 µM, a TGI [32] greater than 100 µM and a TGI [33] greater than 100 µM. For the same molecule, the TGI [34] was greater than 100 µM, the TGI [35] was 36.9 µM and the TGI [36] was greater than 100 µM. It also gave a TGI [37] greater than 100 µM, a TGI [38] greater than 100 µM and a TGI [39] greater than 100 µM. It also gave a TGI [40] greater than 100 µM, a TGI [41] greater than 100 µM and a TGI [42] greater than 100 µM. For the same molecule, the TGI [43] was greater than 100 µM, the TGI [44] was greater than 100 µM and the TGI [45] was greater than 100 µM. It also gave a TGI [46] greater than 100 µM, a TGI [47] greater than 100 µM and a TGI [48] greater than 100 µM. The TGI [49] was greater than 100 µM, the TGI [50] was greater than 100 µM and the TGI [51] was 34.9 µM. The TGI [52] was greater than 100 µM, the TGI [53] was greater than 100 µM and the TGI [54] was greater than 100 µM. It also gave a TGI [55] greater than 100 µM, a TGI [56] greater than 100 µM and a TGI [57] greater than 100 µM. For the same molecule, the TGI [58] was greater than 100 µM and the TGI [59] was greater than 100 µM.
Work on CCOC(=O)c1sc2c(C(=O)OCC)n3cc(C)cc(C)c3c2c1O yielded a TGI [1] greater than 100 µM, a TGI [60] greater than 100 µM and a TGI [2] greater than 100 µM. The TGI [3] was greater than 100 µM, the TGI [4] was greater than 100 µM and the TGI [5] was greater than 100 µM. It also gave a TGI [6] greater than 100 µM, a TGI [7] greater than 100 µM and a TGI [8] of 90 µM. It also gave a TGI [9] greater than 100 µM, a TGI [11] greater than 100 µM and a TGI [12] greater than 100 µM. For the same molecule, the TGI [14] was greater than 100 µM, the TGI [61] was greater than 100 µM and the TGI [17] was greater than 100 µM. For the same molecule, the TGI [19] was greater than 100 µM, the TGI [21] was greater than 100 µM and the TGI [23] was greater than 100 µM. For the same molecule, the TGI [24] was greater than 100 µM, the TGI [25] was greater than 100 µM and the TGI [26] was greater than 100 µM. It also gave a TGI [62] greater than 100 µM, a TGI [28] greater than 100 µM and a TGI [29] greater than 100 µM. It also gave a TGI [31] greater than 100 µM, a TGI [33] greater than 100 µM and a TGI [34] greater than 100 µM. For the same molecule, the TGI [35] was greater than 100 µM, the TGI [36] was greater than 100 µM and the TGI [37] was greater than 100 µM. It also gave a TGI [38] greater than 100 µM, a TGI [40] greater than 100 µM and a TGI [41] greater than 100 µM. For the same molecule, the TGI [42] was greater than 100 µM, the TGI [63] was greater than 100 µM and the TGI [44] was greater than 100 µM. For the same molecule, the TGI [46] was greater than 100 µM, the TGI [48] was greater than 100 µM and the TGI [49] was greater than 100 µM. It also gave a TGI [64] greater than 100 µM, a TGI [50] greater than 100 µM and a TGI [51] greater than 100 µM. It also gave a TGI [52] greater than 100 µM, a TGI [53] greater than 100 µM and a TGI [54] greater than 100 µM. The TGI [65] was greater than 100 µM, the TGI [56] was greater than 100 µM and the TGI [57] was greater than 100 µM. For the same molecule, the TGI [66] was greater than 100 µM and the TGI [58] was greater than 100 µM.
Work on CCCC1=C(OC)C(=O)c2c(C)cc(Cl)nc2C1=O yielded a TGI [1] of 16.7 µM, a TGI [2] of 9.71 µM and a TGI [3] of 22.1 µM. For the same molecule, the TGI [4] was 20.2 µM, the TGI [5] was 9.62 µM and the TGI [6] was 5.23 µM. It also gave a TGI [7] of 30.3 µM, a TGI [8] of 20.7 µM and a TGI [9] of 24.4 µM. It also gave a TGI [10] of 19.7 µM, a TGI [11] of 6.54 µM and a TGI [12] of 7.26 µM. It also gave a TGI [13] of 3.33 µM, a TGI [14] of 5.11 µM and a TGI [15] of 28.6 µM. The TGI [16] was greater than 47 µM, the TGI [17] was 20.3 µM and the TGI [18] was 5.98 µM. For the same molecule, the TGI [19] was 29.1 µM, the TGI [20] was 35 µM and the TGI [21] was 11.3 µM. It also gave a TGI [22] of 19.5 µM, a TGI [23] of 8.45 µM and a TGI [24] of 33.2 µM. It also gave a TGI [25] of 27.2 µM, a TGI [26] of 23.7 µM and a TGI [27] of 29.9 µM. It also gave a TGI [28] of 17.4 µM, a TGI [29] of 31 µM and a TGI [30] of 3.45 µM. The TGI [31] was 3.72 µM, the TGI [32] was 26.5 µM and the TGI [33] was 26.9 µM. It also gave a TGI [34] of 18.6 µM, a TGI [35] of 26.6 µM and a TGI [36] of 18.9 µM. It also gave a TGI [38] of 13.8 µM, a TGI [39] of 3.65 µM and a TGI [40] of 8.06 µM. It also gave a TGI [41] of 21.7 µM, a TGI [42] of 26.5 µM and a TGI [43] of 6.17 µM. For the same molecule, the TGI [44] was 10.5 µM, the TGI [45] was 26.4 µM and the TGI [46] was 16.7 µM. It also gave a TGI [47] of 11.2 µM, a TGI [48] of 20.2 µM and a TGI [49] of 34.9 µM. The TGI [50] was 13.7 µM, the TGI [51] was 5.15 µM and the TGI [52] was 34.5 µM. It also gave a TGI [53] of 20.1 µM, a TGI [54] of 2.77 µM and a TGI [55] of 9.83 µM. The TGI [56] was 18.1 µM, the TGI [57] was 19.5 µM and the TGI [58] was 31.9 µM. The TGI [59] was 14.2 µM.
With C=CCC12CC(=O)CCC1c1ccc(OC)cc1C2=O (centres undefined) the TGI [1] was greater than 100 µM, the TGI [60] was greater than 100 µM and the TGI [2] was greater than 100 µM. It also gave a TGI [3] greater than 100 µM, a TGI [4] greater than 100 µM and a TGI [5] greater than 100 µM. For the same molecule, the TGI [6] was greater than 100 µM, the TGI [7] was greater than 100 µM and the TGI [8] was greater than 100 µM. It also gave a TGI [9] greater than 100 µM, a TGI [10] greater than 100 µM and a TGI [11] greater than 100 µM. For the same molecule, the TGI [12] was greater than 100 µM, the TGI [14] was greater than 100 µM and the TGI [61] was greater than 100 µM. It also gave a TGI [17] greater than 100 µM, a TGI [18] greater than 100 µM and a TGI [19] greater than 100 µM. It also gave a TGI [20] greater than 100 µM, a TGI [21] greater than 100 µM and a TGI [23] greater than 100 µM. The TGI [24] was greater than 100 µM, the TGI [25] was greater than 100 µM and the TGI [26] was greater than 100 µM. It also gave a TGI [27] greater than 100 µM, a TGI [62] greater than 100 µM and a TGI [28] greater than 100 µM. The TGI [29] was greater than 100 µM, the TGI [31] was greater than 100 µM and the TGI [33] was greater than 100 µM. It also gave a TGI [34] greater than 100 µM, a TGI [35] greater than 100 µM and a TGI [36] greater than 100 µM. It also gave a TGI [37] greater than 100 µM, a TGI [38] greater than 100 µM and a TGI [39] greater than 100 µM. For the same molecule, the TGI [40] was greater than 100 µM, the TGI [41] was greater than 100 µM and the TGI [42] was greater than 100 µM. It also gave a TGI [63] greater than 100 µM, a TGI [44] greater than 100 µM and a TGI [46] greater than 100 µM. The TGI [47] was greater than 100 µM, the TGI [67] was greater than 100 µM and the TGI [48] was greater than 100 µM. For the same molecule, the TGI [49] was greater than 100 µM, the TGI [64] was greater than 100 µM and the TGI [50] was greater than 100 µM. For the same molecule, the TGI [51] was greater than 100 µM, the TGI [52] was greater than 100 µM and the TGI [53] was greater than 100 µM. It also gave a TGI [54] greater than 100 µM, a TGI [65] greater than 100 µM and a TGI [56] greater than 100 µM. It also gave a TGI [57] greater than 100 µM, a TGI [66] greater than 100 µM and a TGI [58] greater than 100 µM.
